Measurements published in ChEMBL document CHEMBL1136432, “Discovery of potent imidazole and cyanophenyl containing farnesyltransferase inhibitors with improved oral bioavailability” (Bioorg Med Chem Lett, 2003).

Columns and labels:
[1] = target: T1, Protein farnesyltransferase (Bos taurus, UniProt P29702+P49355); experiment: Inhibition of transfer of [3H]FPP to biotin K-ras peptide (KKSKTKCVIM) catalyzed by bovine FTase; format: protein-complex assay
NIH3T3 = experiment: Concentration needed to reduce 50% of farnesylation in NIH3T3 H-ras cell line; format: functional, cell-based; conditions: Mus musculus
[2] = Pharmacokinetic (PK) property (AUC) was determined in dog at the single oral dose of 1 mg/kg; format: ADME, organism-based, Canis lupus familiaris; set-up: dose 1 mg/kg, route oral; conditions: in vivo
[3] = Pharmacokinetic (PK) property (Tmax) was determined in dog at the single dose of 1 mg/kg; format: ADME, organism-based, Canis lupus familiaris; set-up: dose 1 mg/kg; conditions: in vivo
[4] = Half life in dog at the single oral dose of 1 mg/kg; format: ADME, organism-based, Canis lupus familiaris; set-up: dose 1 mg/kg, route oral; conditions: in vivo
[5] = Pharmacokinetic (PK) property (Cmax) was determined in dog at the single dose of 1 mg/kg; format: ADME, organism-based, Canis lupus familiaris; set-up: dose 1 mg/kg; conditions: in vivo
[6] = target: T1, Protein farnesyltransferase; experiment: Inhibition of [3H]FPP transfer to biotin K-ras peptide (KKSKTKCVIM) by bovine FTase; format: protein-complex assay
[7] = target: Geranylgeranyl transferase type I (Bos taurus, UniProt P29702+Q5EAD5); experiment: Inhibition of [3H]FPP transfer to biotin K-ras peptide (KKSKTKCVLL) catalyzed by bovine GGTase-I
in vivo = conditions: dog, po, 5 mg/kg
Description: Oral bioavailability in dog (dose 5 mg/kg)

[8] = Oral bioavailability in monkey; conditions: cercopithecidae, in vivo

Row | Compound | IC50 [1] [nM] | EC50 (NIH3T3) [nM] | further results
1 | Cn1cncc1C(OCc1ccc(C#N)cc1-c1ccc(F)c(Cl)c1)c1ccc(C#N)nc1 (stereo unspecified) | 1 | 46 | –
2 | Cn1cncc1C(OCc1ccc(C#N)cc1-c1cccc2ccccc12)c1ccc(C#N)nc1 (stereo unspecified) | 1.7 | 46 | –
3 | Cn1cncc1C(OCc1cnc(C#N)cc1-c1cccc(Cl)c1)c1ccc(C#N)cc1 (stereo unspecified) | 1.8 | 17 | –
4 | CN1CCN(c2nc(COC(c3ccc(C#N)cc3)c3cncn3C)ccc2C#N)CC1 (stereo unspecified) | 58 | – | –
5 | Cn1cncc1C(OCc1ccc(C#N)cn1)c1ccc(C#N)c(-c2cccc3ccccc23)c1 (stereo unspecified) | 0.43 | 6 | –
6 | Cn1cncc1C(OCc1nc(N2CCC(C(N)=O)CC2)c(C#N)cc1-c1cccc(Cl)c1)c1ccc(C#N)cc1 (stereo unspecified) | 0.73 | 1.5 | –
7 | Cn1cncc1C(OCc1nc(N2CCOCC2)c(C#N)cc1-c1cccc(Cl)c1)c1ccc(C#N)cc1 (stereo unspecified) | 0.25 | 1.2 | –
8 | Cn1cncc1C(OCc1ccc(C#N)cc1-c1ccc2c(c1)OCO2)c1ccc(C#N)nc1 (stereo unspecified) | 0.84 | 3.5 | –
9 | COc1cccc(-c2cc(C#N)ccc2COC(c2ccc(C#N)cc2)c2cncn2C)c1 (stereo unspecified) | 0.62 | 1.2 | –
10 | Cn1cncc1C(OCc1ccc(C#N)nc1-c1cc(Cl)cc(Cl)c1)c1ccc(C#N)cc1 (stereo unspecified) | 0.45 | 6 | –
11 | Cn1cncc1C(OCc1nc(N2CCN(C(=O)OC(C)(C)C)CC2)c(C#N)cc1-c1cccc(Cl)c1)c1ccc(C#N)cc1 (stereo unspecified) | – | 4.5 | –
12 | Cn1cncc1C(OCc1ccc(C#N)nc1-c1ccccc1)c1ccc(C#N)cc1 (stereo unspecified) | 3.9 | 19 | –
13 | Cn1cncc1C(OCc1ccc(C#N)c(-c2ccc3ccccc3c2)n1)c1ccc(C#N)cc1 (stereo unspecified) | 8.2 | – | –
14 | CN1CCN(c2nc(COC(c3ccc(C#N)cc3)c3cncn3C)c(-c3cccc(Cl)c3)cc2C#N)CC1 (stereo unspecified) | 0.57 | 2 | –
15 | Cn1cncc1C(OCc1nc(N2CCC(O)CC2)c(C#N)cc1-c1cccc(Cl)c1)c1ccc(C#N)cc1 (stereo unspecified) | 0.51 | 3.6 | –
16 | Cn1cncc1C(OCc1ccc(C#N)nc1-c1cc(F)cc(F)c1)c1ccc(C#N)cc1 (stereo unspecified) | 0.71 | 2.2 | –
17 | Cn1cncc1C(OCc1ccc(C#N)cc1-c1cccc(Cl)c1)c1ccc(C#N)nc1 (stereo unspecified) | 0.75 | 2.1 | –
18 | Cn1cncc1C(OCc1ccc(C#N)c(-c2cccc(Cl)c2)n1)c1ccc(C#N)cc1 (stereo unspecified) | 12 | – | –

Row | Compound | IC50 [1] [nM] | EC50 (NIH3T3) [nM] | further results
19 | Cn1cncc1C(OCc1ccc(C#N)nc1N1CCOCC1)c1ccc(C#N)cc1 (stereo unspecified) | 1.9 | 88 | –
20 | Cn1cncc1C(OCc1ccc(C#N)c(-c2cccc(C#N)c2)n1)c1ccc(C#N)cc1 (stereo unspecified) | 68 | – | –
21 | Cn1cncc1C(OCc1ccc(C#N)nc1-c1cccc(OC(F)(F)F)c1)c1ccc(C#N)cc1 (stereo unspecified) | 0.18 | 2 | –
22 | COc1cccc(-c2cc(C#N)ccc2COC(c2ccc(C#N)nc2)c2cncn2C)c1 (stereo unspecified) | 0.88 | 20 | –
23 | Cn1cncc1C(OCc1ccc(C#N)cc1-c1cc(Cl)cc(Cl)c1)c1ccc(C#N)nc1 (stereo unspecified) | 0.64 | 3.5 | –
24 | Cn1cncc1C(OCc1ccc(C#N)nc1-c1ccc2c(c1)OC(F)(F)O2)c1ccc(C#N)cc1 (stereo unspecified) | 0.18 | 1.2 | AUC [2]: 2800 ng·h/mL; Tmax [3]: 1 h; half-life [4]: 7.6 h; Cmax [5]: 260 ng/mL
25 | Cn1cncc1C(OCc1ccc(C#N)cc1)c1ccc(C#N)c(-c2cccc3ccccc23)c1 (stereo unspecified) | – | 110 | IC50 [6]: 0.2 nM; IC50 [7]: 18 nM
26 | Cn1cncc1C(OCc1ccc(C#N)nc1-c1cccc(Cl)c1)c1ccc(C#N)cc1 (stereo unspecified) | 0.82 | 1.8 | –
27 | Cn1cncc1C(OCc1ccc(C#N)nc1N1CCN(C(=O)OC(C)(C)C)CC1)c1ccc(C#N)cc1 (stereo unspecified) | 44 | – | –
28 | Cn1cncc1C(OCc1ccc(C#N)nc1-c1ccc(OC(F)(F)F)cc1)c1ccc(C#N)cc1 (stereo unspecified) | 0.51 | 4 | –
29 | Cn1cncc1C(OCc1ccc(C#N)nc1-c1ccc2ccccc2c1)c1ccc(C#N)cc1 (stereo unspecified) | 0.16 | 7.4 | –
30 | Cn1cncc1C(OCc1ncc(C#N)cc1-c1cccc(Cl)c1)c1ccc(C#N)cc1 (stereo unspecified) | 0.92 | 10 | –
31 | Cn1cncc1C(OCc1ccc(C#N)cc1)c1ccc(C#N)c(-c2cccc3cccnc23)c1 (stereo unspecified) | 2 | 3.7 | bioavailability (in vivo): 53%; bioavailability [8]: 92%
32 | CC(=O)N1CCN(c2nc(COC(c3ccc(C#N)cc3)c3cncn3C)c(-c3cccc(Cl)c3)cc2C#N)CC1 (stereo unspecified) | 0.98 | 0.4 | –
33 | Cn1cncc1C(OCc1nc(Cl)c(C#N)cc1-c1cccc(Cl)c1)c1ccc(C#N)cc1 (stereo unspecified) | – | 29 | –
34 | Cn1cncc1C(OCc1ccc(C#N)c(-c2ccc(Cl)cc2)n1)c1ccc(C#N)cc1 (stereo unspecified) | 25 | – | –
35 | Cn1cncc1C(OCc1ccc(C#N)cc1-c1cccc(OC(F)(F)F)c1)c1ccc(C#N)nc1 (stereo unspecified) | 0.4 | 24 | –
36 | Cn1cncc1C(OCc1ccc(C#N)cc1-c1cc(F)cc(F)c1)c1ccc(C#N)nc1 (stereo unspecified) | 2 | 25 | –
